These results are taken from US11458123B2 (Arvinas, Inc., priority 2016, dated 2022).

Structures are written as SMILES.

The first experiment concerns tau protein. Kind of experiment: Tau protein in vitro degradation assay (Western blot, Tau-13 antibody). Format: cell-based, human. Particulars: SK-N-SH cells; 72 hours of incubation; tested at 300 nM, 100 nM, 33 nM and 11 nM; Western blot, Tau-13 antibody. The procedure:
Tau Protein In Vitro Degradation Assay
To determine effect of PROTACs on tau protein degradation SK-N-SH cells were seeded in a 24-well tissue culture-treated plate for at least 18-hours prior to compound addition. Tau PROTACs were evaluated for tau degradation by lysing the cells in lysis buffer with protease inhibitors following a 72-hour incubation with tau PROTACs at 1000 nM, 300 nM and 100 nM for Table 1 and 300 nM, 100 nM, 33 nM and 11 nM for Table 2. Cell lysates were run on standard SDS-PAGE gels, and tau levels were detected by Western blotting using Tau-13 antibody from Abcam (Cambridge, UK) that binds to all forms of human tau.
In general terms: In western blotting, separated proteins are transferred to a membrane and probed.
Take `Cn1c2ccncc2c2ccc(-c3ccc(O[C@H]4C[C@@H](Oc5ccc(CCCOC6CN(c7ccc8c(c7)C(=O)N(C7CCC(=O)NC7=O)C8=O)C6)nc5)C4)nc3)cc21` (stereo partly shown) [Compound 160, 2-(2,6-dioxopiperidin-3-yl)-5-(3-(3-(5-((1 s,3s)-3-((5-(5-methyl-5H-pyrido[4,3-b]indol-7-yl)pyridin-2-yl)oxy)cyclobutoxy)pyridin-2-yl)propoxy)azetidin-1-yl)isoindoline-1,3-dione]: the “Degradation activity* (highest amount of degradation observed at any dosage; tau protein remaining)” value was “B (≤80% and >50% tau protein remaining after 72 hours of incubation with the test compound)”. Turning to `O=C1CCC(N2C(=O)c3c(F)c(F)c(OCCOCCOCCOCCOCCOc4ccc(-c5ccc6c(c5)[nH]c5ccncc56)cn4)c(F)c3C2=O)C(=O)N1` (stereo not shown) [Compound 72, 5-((14-((5-(5H-pyrido[4,3-b]indol-7-yl)pyridin-2-yl)oxy)-3,6,9,12-tetraoxatetradecyl)oxy)-2-(2,6-dioxopiperidin-3-yl)-4,6,7-trifluoroisoindoline-1,3-dione], the “Degradation activity* (highest amount of degradation observed at any dosage; tau protein remaining)” value is “C (>80% tau protein remaining after 72 hours of incubation with the test compound)”. Same read-out and setting: to `Cn1c2ccncc2c2ccc(-c3ccc(O[C@H]4C[C@H](OCCCCCCCCN5CCN(c6ccc7c(c6)C(=O)N(C6CCC(=O)NC6=O)C7=O)CC5)C4)nc3)cc21` (stereo partly shown) [Compound 91, 2-(2,6-dioxopiperidin-3-yl)-5-(4-(8-((1r,3r)-3-((5-(5-methyl-5H-pyrido[4,3-b]indol-7-yl)pyridin-2-yl)oxy)cyclobutoxy)octyl)piperazin-1-yl)isoindoline-1,3-dione] belongs “C (>80% tau protein remaining after 72 hours of incubation with the test compound)”; to `Cc1cc(-c2ccc3c4cnccc4n(C)c3c2)cnc1OCCOCCOCCOCCOCCOc1ccc2c(c1)C(=O)N(C1CCC(=O)NC1=O)C2=O` (stereo not shown) [Compound 140, 2-(2,6-dioxopiperidin-3-yl)-5-((14-((3-methyl-5-(5-methyl-5H-pyrido[4,3-b]indol-7-yl)pyridin-2-yl)oxy)-3,6,9,12-tetraoxatetradecyl)oxy)isoindoline-1,3-dione], “A (≤50% tau protein remaining after 72 hours of incubation with the test compound)”. On to `Cn1c2ccncc2c2ccc(-c3ccc(O[C@H]4C[C@H](CN5CC6(CC(OCCCCOc7ccc8c(c7)C(=O)N(C7CCC(=O)NC7=O)C8=O)C6)C5)C4)nc3)cc21` (stereo partly shown) [Compound 135, 2-(2,6-dioxopiperidin-3-yl)-5-(4-((2-(((1r,3r)-3-((5-(5-methyl-5H-pyrido[4,3-b]indol-7-yl)pyridin-2-yl)oxy)cyclobutyl)methyl)-2-azaspiro[3.3]heptan-6-yl)oxy)butoxy)isoindoline-1,3-dione], for which the “Degradation activity* (highest amount of degradation observed at any dosage; tau protein remaining)” value was “B (≤80% and >50% tau protein remaining after 72 hours of incubation with the test compound)”.

As for `O=C1CCC(N2C(=O)c3ccc(OC4CN(CCCOCCCO[C@H]5C[C@H](Oc6ncc(-c7ccc8c(c7)[nH]c7ccncc78)cc6C(F)(F)F)C5)C4)cc3C2=O)C(=O)N1` (stereo partly shown) [Compound 101, 5-((1-(3-(3-((1r,3r)-3-((5-(5H-pyrido[4,3-b]indol-7-yl)-3-(trifluoromethyl)pyridin-2-yl)oxy)cyclobutoxy)propoxy)propyl)azetidin-3-yl)oxy)-2-(2,6-dioxopiperidin-3-yl)isoindoline-1,3-dione], the “Degradation activity* (highest amount of degradation observed at any dosage; tau protein remaining)” value was “A (≤50% tau protein remaining after 72 hours of incubation with the test compound)”. Same read-out and setting: to `O=C1CCC(N2C(=O)c3ccc(OCCCCCc4ccc(O[C@H]5C[C@H](Oc6ccc(-c7ccc8c(c7)[nH]c7ccncc78)cn6)C5)cn4)cc3C2=O)C(=O)N1` (stereo partly shown) [Compound 83, 5-((5-(5-((1r,3r)-3-((5-(5H-pyrido[4,3-b]indol-7-yl)pyridin-2-yl)oxy)cyclobutoxy)pyridin-2-yl)pentyl)oxy)-2-(2,6-dioxopiperidin-3-yl)isoindoline-1,3-dione] belongs “C (>80% tau protein remaining after 72 hours of incubation with the test compound)”; to `O=C1CCC(N2C(=O)c3ccc(OCCCc4ccc(N5CCN(CCCc6ccc(-c7ccc8c(c7)[nH]c7ccncc78)cn6)CC5)nc4)cc3C2=O)C(=O)N1` (stereo not shown) [Compound 55, 5-(3-(6-(4-(3-(5-(5H-pyrido[4,3-b]indol-7-yl)pyridin-2-yl)propyl)piperazin-1-yl)pyridin-3-yl)propoxy)-2-(2,6-dioxopiperidin-3-yl)isoindoline-1,3-dione], “C (>80% tau protein remaining after 72 hours of incubation with the test compound)”.

Regarding `Cn1c2ccncc2c2ccc(-c3cnc(O[C@H]4C[C@H](OCCCOCCCOC5CN(c6ccc7c(c6)C(=O)N(C6CCC(=O)NC6=O)C7=O)C5)C4)c(C(F)(F)F)c3)cc21` (stereo partly shown) [Compound 125, 2-(2,6-dioxopiperidin-3-yl)-5-(3-(3-(3-((1r,3r)-3-((5-(5-methyl-5H-pyrido[4,3-b]indol-7-yl)-3-(trifluoromethyl)pyridin-2-yl)oxy)cyclobutoxy)propoxy)propoxy)azetidin-1-yl)isoindoline-1,3-dione], the “Degradation activity* (highest amount of degradation observed at any dosage; tau protein remaining)” value is listed as “C (>80% tau protein remaining after 72 hours of incubation with the test compound)”.

Take `Cn1c2ccncc2c2ccc(-c3cnc(O[C@H]4C[C@H](OCCCOCCCN5CC(Oc6ccc7c(c6)C(=O)N(C6CCC(=O)NC6=O)C7=O)C5)C4)c(C(F)(F)F)c3)cc21` (stereo partly shown) [Compound 105, 2-(2,6-dioxopiperidin-3-yl)-5-((1-(3-(3-((1r,3r)-3-((5-(5-methyl-5H-pyrido[4,3-b]indol-7-yl)-3-(trifluoromethyl)pyridin-2-yl)oxy)cyclobutoxy)propoxy)propyl)azetidin-3-yl)oxy)isoindoline-1,3-dione]: the “Degradation activity* (highest amount of degradation observed at any dosage; tau protein remaining)” value is “A (≤50% tau protein remaining after 72 hours of incubation with the test compound)”. On to `Cn1c2ccncc2c2ccc(-c3ccc(O[C@H]4C[C@H](OCCOCCOCC5CN(c6ccc7c(c6)C(=O)N(C6CCC(=O)NC6=O)C7=O)C5)C4)nc3)cc21` (stereo partly shown) [Compound 192, 2-(2,6-dioxopiperidin-3-yl)-5-(3-((2-(2-((1r,3r)-3-((5-(5-methyl-5H-pyrido[4,3-b]indol-7-yl)pyridin-2-yl)oxy)cyclobutoxy)ethoxy)ethoxy)methyl)azetidin-1-yl)isoindoline-1,3-dione], for which the “Degradation activity (tau protein remaining; highest amount of degradation observed at any dosage)” value is recorded as “C (>80% tau protein remaining after 72 hours of incubation with the test compound)”. For `Cn1c2ccncc2c2ccc(-c3ccc(OCCOCCOCCOCCOCCOc4ccc5c(c4)C(=O)N(C4CCC(=O)NC4=O)C5=O)nc3C(F)(F)F)cc21` (stereo not shown) [Compound 143, 2-(2,6-dioxopiperidin-3-yl)-5-((14-((5-(5-methyl-5H-pyrido[4,3-b]indol-7-yl)-6-(trifluoromethyl)pyridin-2-yl)oxy)-3,6,9,12-tetraoxatetradecyl)oxy)isoindoline-1,3-dione], the “Degradation activity* (highest amount of degradation observed at any dosage; tau protein remaining)” value was “B (≤80% and >50% tau protein remaining after 72 hours of incubation with the test compound)”. As to `Cn1c2ccncc2c2ccc(-c3ccc(O[C@H]4C[C@H](OCCCCCCOC(C5CN(c6ccc7c(c6)C(=O)N(C6CCC(=O)NC6=O)C7=O)C5)C(F)(F)F)C4)nc3)cc21` (stereo partly shown) [Compound 154, 2-(2,6-dioxopiperidin-3-yl)-5-(3-(2,2,2-trifluoro-1-((6-((1r,3r)-3-((5-(5-methyl-5H-pyrido[4,3-b]indol-7-yl)pyridin-2-yl)oxy)cyclobutoxy)hexyl)oxy)ethyl)azetidin-1-yl)isoindoline-1,3-dione], the “Degradation activity* (highest amount of degradation observed at any dosage; tau protein remaining)” value is “C (>80% tau protein remaining after 72 hours of incubation with the test compound)”. On to `Cn1c2ccncc2c2ccc(-c3ccc(O[C@H]4C[C@H](OCCCOCCCN5CC(Oc6ccc7c(c6)C(=O)N(C6CCC(=O)NC6=O)C7=O)C5)C4)nc3)cc21` (stereo partly shown) [Compound 99, 2-(2,6-dioxopiperidin-3-yl)-5-((1-(3-(3-((1r,3r)-3-((5-(5-methyl-5H-pyrido[4,3-b]indol-7-yl)pyridin-2-yl)oxy)cyclobutoxy)propoxy)propyl)azetidin-3-yl)oxy)isoindoline-1,3-dione], for which the “Degradation activity* (highest amount of degradation observed at any dosage; tau protein remaining)” value is given as “A (≤50% tau protein remaining after 72 hours of incubation with the test compound)”.

For the molecule `O=C1CCC(N2C(=O)c3ccc(OCCOCCOCCOCCOCCOc4ccc(-c5ccc6c7cnccc7n(CC(F)(F)F)c6c5)cn4)cc3C2=O)C(=O)N1` (stereo not shown) [Compound 88, 2-(2,6-dioxopiperidin-3-yl)-5-((14-((5-(5-(2,2,2-trifluoroethyl)-5H-pyrido[4,3-b]indol-7-yl)pyridin-2-yl)oxy)-3,6,9,12-tetraoxatetradecyl)oxy)isoindoline-1,3-dione], the “Degradation activity* (highest amount of degradation observed at any dosage; tau protein remaining)” value is listed as “A (≤50% tau protein remaining after 72 hours of incubation with the test compound)”.

Still in this experiment, the particulars now being: SK-N-SH cells; 72 hours of incubation; tested at 1000 nM, 300 nM and 100 nM.
Turning to `Cc1ncsc1-c1ccc([C@H](C)NC(=O)[C@@H]2C[C@@H](O)CN2C(=O)[C@@H](NC(=O)COCCCOCCCOc2ccc3nc(-c4ccc(N(C)C)cc4)ccc3c2)C(C)(C)C)cc1` [Compound 36, (2S,4R)-1-((S)-2-(2-(3-(3-(2-(4-(dimethylamino)phenyl)quinolin-6-yloxy)propoxy)propoxy)acetamido)-3,3-dimethylbutanoyl)-4-hydroxy-N—((S)-1-(4-(4-methylthiazol-5-yl)phenyl)ethyl)pyrrolidine-2-carboxamide], the “Activity* (highest amount of degradation observed at any dosage, as tau protein remaining)” value is recorded as “C (>80% tau protein remaining after 72 hours of incubation with the test compound)”.
